According to ChEMBL document CHEMBL1201862, “PubChem BioAssay data set” (2004):
Calls of active or inactive are those of the source.

Assays:
[1] = Counterscreen for AddAB inhibitors: absorbance-based bacterial cell-based high throughput dose response assay for inhibitors of bacterial viability. [Related pubchem assays (depositor defined):AID435030, AID449728, AID449731, AID488942, AID488955, AID488956]; format: functional
Exodeoxyribonuclease V = Exodeoxyribonuclease V (Escherichia coli (strain K12), UniProt P04993+P07648+P08394); experiment: RecBCD inhibition via phage-restricted bacterial growth – absorbance, V66 E. coli, mutant T4 phage, counter-screen for AddAB inhibitor project, dose response (AID 492957); format: functional, cell-based, Escherichia coli str. K-12 substr. MG1655
[2] = biological target: G-protein coupled receptor 55 (Homo sapiens, UniProt Q9Y2T6); experiment: inhibition of LPI-stimulated GPR55 beta-arrestin translocation – imaging, U2OS, beta-arrestin-GFP, LPI agonist, primary screen (AID 2013); format: functional;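 further: antagonist potency measured as reduced agonist-driven arrestin aggregation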
[3] = biological target: T1, Sphingosine 1-phosphate receptor 4 (Homo sapiens, UniProt O95977); experiment: potency of S1P4 blockers – cell-based, fluorescence, synthesized analogues, late-stage follow-up (AID 2346); format: functional
T1 sequence (O95977 whole entry): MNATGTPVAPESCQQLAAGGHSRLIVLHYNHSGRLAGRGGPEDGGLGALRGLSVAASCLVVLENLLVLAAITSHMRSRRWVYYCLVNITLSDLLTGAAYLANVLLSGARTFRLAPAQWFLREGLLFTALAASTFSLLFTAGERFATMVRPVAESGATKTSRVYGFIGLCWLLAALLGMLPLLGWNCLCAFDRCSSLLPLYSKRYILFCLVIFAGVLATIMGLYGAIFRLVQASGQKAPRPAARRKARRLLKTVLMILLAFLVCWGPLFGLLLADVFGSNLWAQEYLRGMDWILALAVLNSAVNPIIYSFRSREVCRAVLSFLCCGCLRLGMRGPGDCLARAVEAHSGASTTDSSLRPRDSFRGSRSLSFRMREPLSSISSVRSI

[4] = biological target: Sphingosine 1-phosphate receptor 3 (Homo sapiens, UniProt Q99500); experiment: Late stage counterscreen assay for S1P4 antagonists: Fluorescence dose response cell-based screening assay for antagonists of the Sphingosine 1-Phosphate Receptor 3 (S1P3). [Related pubchem assays (depositor defined):AID1510, AID1524, AID1692, AID1853, AID2332, AID489009, AID489017]; format: functional
[5] = biological target: Sphingosine 1-phosphate receptor 5 (Homo sapiens, UniProt Q9H228); experiment: Late stage counterscreen assay for S1P4 antagonists: Fluorescence dose response cell-based screening assay for antagonists of the Sphingosine 1-Phosphate Receptor 5 (S1P5). [Related pubchem assays (depositor defined):AID1510, AID1524, AID1692, AID1853, AID2332, AID489009, AID489017]; format: functional
[6] = biological target: Sphingosine 1-phosphate receptor 2 (Homo sapiens, UniProt O95136); experiment: Late stage counterscreen assay for S1P4 antagonists: Fluorescence dose response cell-based screening assay for antagonists of the Sphingosine 1-Phosphate Receptor 2 (S1P2). [Related pubchem assays (depositor defined):AID1510, AID1524, AID1692, AID1853, AID2332, AID489009, AID489017]; format: functional
[7] = biological target: T2, Sphingosine 1-phosphate receptor 1 (Homo sapiens, UniProt P21453); experiment: Late stage counterscreen assay for S1P4 antagonists: Fluorescence dose response cell-based screening assay for antagonists of the Sphingosine 1-Phosphate Receptor 1 (S1P1). [Related pubchem assays (depositor defined):AID1510, AID1524, AID1692, AID1853, AID2332, AID489009, AID489017]; format: functional
[8] = biological target: T3, Delta-type opioid receptor (Homo sapiens, UniProt P41143); experiment: SAR Analysis of Agonists of the DOR Receptor using an Image-Based Assay - Set 2. [Related pubchem assays (depositor defined):AID1777, AID1785, AID1786, AID1966, AID2133, AID2136, AID2284, AID2285, AID2370]; format: functional
[9] = biological target: T4, Kappa-type opioid receptor (Homo sapiens, UniProt P41145); experiment: SAR analysis of small molecule agonists of the kappa opioid receptor via a luminescent beta-arrestin assay - Set 3. [Related pubchem assays (depositor defined):AID1777, AID1785, AID1786, AID1966, AID2133, AID2136, AID2284, AID2500]; format: functional
[10] = biological target: T3, Delta-type opioid receptor; experiment: SAR Analysis of Antagonists of the DOR Receptor using an Image-Based Assay - Set 2. [Related pubchem assays (depositor defined):AID1777, AID1785, AID1786, AID1966, AID2133, AID2136, AID2284, AID2285, AID2357]; format: functional
[11] = biological target: T4, Kappa-type opioid receptor; experiment: kappa opioid receptor activation by imaging – image-based, set 3, SAR follow-up (AID 488833); format: functional
Mu-type opioid receptor [12] = biological target: T5, Mu-type opioid receptor (Homo sapiens, UniProt P35372); experiment: SAR Analysis of Agonists of the MOR Receptor using an Image-Based Assay - Set 2. [Related pubchem assays (depositor defined):AID1777, AID1785, AID1786, AID1966, AID2133, AID2136, AID2284, AID2285, AID2352]; format: functional
[13] = biological target: T4, Kappa-type opioid receptor; experiment: SAR analysis of Antagonists of the Kappa Opioid Receptor (KOR) using an Image-Based Assay - Set 2. [Related pubchem assays (depositor defined):AID1777, AID1785, AID1786, AID1966, AID2133, AID2136, AID2284, AID2285, AID2348]; format: functional
[14] = biological target: T3, Delta-type opioid receptor; experiment: SAR Analysis of Agonists of the DOR Receptor using an Image-Based Assay - Set 3. [Related pubchem assays (depositor defined):AID1777, AID1786]; format: functional
Mu-type opioid receptor [15] = biological target: T5, Mu-type opioid receptor; experiment: SAR Analysis of Antagonists of the MOR Receptor using an Image-Based Assay - Set 2. [Related pubchem assays (depositor defined):AID1777, AID1785, AID1786, AID1966, AID2133, AID2136, AID2284, AID2285, AID2420]; format: functional
Mu-type opioid receptor [16] = biological target: T5, Mu-type opioid receptor; experiment: SAR Analysis of Agonists of the MOR Receptor using an Image-Based Assay - Set 3. [Related pubchem assays (depositor defined):AID1777, AID1785, AID1786, AID1966, AID2133, AID2136, AID2284, AID2285, AID2352]; format: functional
[17] = biological target: Nuclear receptor ROR-gamma (Homo sapiens, UniProt P51449); experiment: LXR, FXR and VP16 reporter activity, cell-based, luciferase reporter, ROR modulator project, late-stage follow-up, panel member RORG (AID 2117)
[18] = biological target: Nuclear receptor ROR-alpha (Homo sapiens, UniProt P35398); experiment: LXR, FXR and VP16 reporter activity, cell-based, luciferase reporter, ROR modulator project, late-stage follow-up, panel member RORA (AID 2117)
[19] = alpha-synuclein stem-loop luciferase translation blockers – H4 neuroglioma cells, luminescence, confirmation (AID 1988); format: functional, cell-based
[20] = biological target: T3, Delta-type opioid receptor; experiment: HTS Image-Based Screen for Antagonists of the DOR Receptor. [Related pubchem assays (depositor defined):AID1777, AID1785, AID1786, AID2133]; format: functional
[21] = biological target: T4, Kappa-type opioid receptor; format: functional
[22] = biological target: T2, Sphingosine 1-phosphate receptor 1; format: functional
A-375 [23] = experiment: proliferation inhibition in MITF-low A375 cells – cell-based, cherry-pick samples, set 2, counter-screen for MITF modulator project, dose response (AID 540335); format: functional; settings: Homo sapiens
[24] = blockade of melanocortin 4 receptor signaling – cell-based, plate reader, cherry pick, counter-screen for LGR2 antagonist project, dose response (AID 743444); format: functional;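 further: transfected HEK 293 cells stimulated with alpha-MSH peptide; potency of inhibitors of the alpha-MSH evoked signal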
[25] = A549 cell cytotoxicity, dose response, cytotoxicity control, plate reader, cherry-pick, antagonist series (AID 743412); format: functional, cell-based
[26] = biological target: T4, Kappa-type opioid receptor; format: functional; remark: listed apart in the source
Mu-type opioid receptor [27] = biological target: T5, Mu-type opioid receptor; experiment: HTS Image-Based Screen for Agonists of the MOR Receptor. [Related pubchem assays (depositor defined):AID1777, AID1785, AID1786, AID2133]; format: functional
[28] = toxicity toward HepG2 liver cells – cell-based, plate reader, cherry-pick, antagonist series, cytotoxicity control, dose response (AID 743416); format: functional
[29] = NIH3T3 cell viability loss – ATP luminescence, mouse fibroblasts, counter-screen, dose response (AID 2010); format: functional, cell-based;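 further: cells exposed to compound for about 90 hours before reading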
[30] = blockers of bursicon-stimulated LGR2 cAMP reporter – cell-based, HEK293, CRE-luciferase reporter, cherry pick, set 2, dose response (AID 743343); format: functional;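 further: transfected cells were stimulated with diluted bursicon conditioned medium after compound addition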
[31] = Luminescence Cell-Based Dose Response HTS to Identify Inhibitors of 5'UTR Stem-Loop Driven Prion Protein mRNA Translation in H4 Neuroglioblastoma Cells. [Related pubchem assays: 1827 (Project Summary), 1813 (Primary HTS)]; format: functional
[32] = biological target: T3, Delta-type opioid receptor; experiment: HTS Image-Based Screen for Agonists of the DOR Receptor. [Related pubchem assays (depositor defined):AID1777, AID1786, AID2133]; format: functional
Beta-galactosidase = Beta-galactosidase (Escherichia coli, UniProt Q8VNN2); format: functional
[33] = luciferase reporter signal suppression in cells – H4 neuroglioma cells, luminescence, dose response (AID 1990); format: functional, cell-based
[34] = biological target: T6, Microphthalmia-associated transcription factor (Homo sapiens, UniProt O75030); experiment: reducers of TRPM1 reporter luminescence, concentration series – cell-based, SK-MEL-5, cherry-picked, set 3, MITF inhibitor project, dose response (AID 493073); format: functional;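 further: SK-MEL-5 melanoma cells with luciferase driven by the MITF target TRPM1 promoter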
T6 sequence (O75030 whole entry): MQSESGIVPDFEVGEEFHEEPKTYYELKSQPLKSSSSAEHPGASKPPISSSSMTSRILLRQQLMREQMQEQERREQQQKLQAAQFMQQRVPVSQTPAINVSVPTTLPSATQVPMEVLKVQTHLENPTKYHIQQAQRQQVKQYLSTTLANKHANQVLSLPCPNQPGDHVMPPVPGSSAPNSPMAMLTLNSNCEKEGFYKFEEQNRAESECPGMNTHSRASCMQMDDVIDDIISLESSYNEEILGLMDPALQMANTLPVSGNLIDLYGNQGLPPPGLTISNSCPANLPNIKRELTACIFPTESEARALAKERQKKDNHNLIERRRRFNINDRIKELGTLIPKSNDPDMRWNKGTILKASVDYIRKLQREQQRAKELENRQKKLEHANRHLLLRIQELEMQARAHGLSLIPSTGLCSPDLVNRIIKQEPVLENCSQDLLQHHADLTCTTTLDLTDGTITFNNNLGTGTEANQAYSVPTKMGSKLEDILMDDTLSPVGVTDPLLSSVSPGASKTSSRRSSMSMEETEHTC

A-375 [35] = experiment: MITF: Counter assay: A375 proliferation Measured in Cell-Based System Using Plate Reader - 2084-03_Inhibitor_Dose_DryPowder_Activity. [Related pubchem assays (depositor defined):AID488944]; format: functional; settings: Homo sapiens
[36] = biological target: T1, Sphingosine 1-phosphate receptor 4; experiment: Fluorescence dose response cell-based high throughput screening assay for antagonists of the Sphingosine 1-Phosphate Receptor 4 (S1P4). [Related pubchem assays: 1524 (Confirmation in triplicates.), 1510 (Primary screen.)]; format: functional
[37] = Trypanosoma cruzi growth suppression in host cells – NIH3T3 host cells, beta-gal luminescence, confirmation (AID 2044); format: functional, cell-based;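 further: intracellular parasites grown in NIH/3T3 mouse fibroblasts as host cells; luminescent beta-galactosidase reporter signal from transgenic T. cruzi replicating inside host cells; inhibitors lower the luminescence signal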
[38] = viability loss in HEK293 cells – cell-based, plate reader, cherry-picked samples, cytotoxicity control, dose response (AID 743446); format: functional

T4 sequence (P41145 whole entry): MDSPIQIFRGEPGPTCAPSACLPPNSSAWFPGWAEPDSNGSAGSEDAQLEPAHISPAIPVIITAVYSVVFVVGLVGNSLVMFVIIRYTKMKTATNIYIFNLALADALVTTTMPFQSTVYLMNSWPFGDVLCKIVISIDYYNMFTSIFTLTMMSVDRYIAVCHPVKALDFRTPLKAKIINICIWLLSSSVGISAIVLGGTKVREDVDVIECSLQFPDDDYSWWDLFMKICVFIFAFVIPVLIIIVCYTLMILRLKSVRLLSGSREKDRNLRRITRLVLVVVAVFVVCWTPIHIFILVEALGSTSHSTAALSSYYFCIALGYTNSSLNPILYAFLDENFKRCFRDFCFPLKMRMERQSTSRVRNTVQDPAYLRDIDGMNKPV
T5 sequence (P35372 whole entry): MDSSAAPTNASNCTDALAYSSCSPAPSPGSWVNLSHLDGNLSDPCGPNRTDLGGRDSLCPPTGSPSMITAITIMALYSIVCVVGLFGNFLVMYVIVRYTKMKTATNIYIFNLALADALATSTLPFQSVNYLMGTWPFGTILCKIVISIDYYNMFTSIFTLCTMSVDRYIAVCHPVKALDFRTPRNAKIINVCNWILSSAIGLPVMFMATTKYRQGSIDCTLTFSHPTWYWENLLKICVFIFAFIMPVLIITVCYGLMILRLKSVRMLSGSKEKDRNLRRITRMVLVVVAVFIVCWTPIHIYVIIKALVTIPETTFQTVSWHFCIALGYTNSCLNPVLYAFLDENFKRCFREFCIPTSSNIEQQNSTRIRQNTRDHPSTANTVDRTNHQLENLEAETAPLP
T3 sequence (P41143 whole entry): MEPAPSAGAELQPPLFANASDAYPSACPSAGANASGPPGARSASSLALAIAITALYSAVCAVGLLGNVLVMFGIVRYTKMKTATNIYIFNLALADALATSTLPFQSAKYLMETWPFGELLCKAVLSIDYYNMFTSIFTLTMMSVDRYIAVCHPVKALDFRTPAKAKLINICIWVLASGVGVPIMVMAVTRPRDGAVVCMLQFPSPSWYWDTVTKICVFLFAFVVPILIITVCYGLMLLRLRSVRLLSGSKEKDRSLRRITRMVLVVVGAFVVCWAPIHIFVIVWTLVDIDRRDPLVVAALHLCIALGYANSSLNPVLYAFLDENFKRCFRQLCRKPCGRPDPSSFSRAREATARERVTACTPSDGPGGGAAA
T2 sequence (P21453 whole entry): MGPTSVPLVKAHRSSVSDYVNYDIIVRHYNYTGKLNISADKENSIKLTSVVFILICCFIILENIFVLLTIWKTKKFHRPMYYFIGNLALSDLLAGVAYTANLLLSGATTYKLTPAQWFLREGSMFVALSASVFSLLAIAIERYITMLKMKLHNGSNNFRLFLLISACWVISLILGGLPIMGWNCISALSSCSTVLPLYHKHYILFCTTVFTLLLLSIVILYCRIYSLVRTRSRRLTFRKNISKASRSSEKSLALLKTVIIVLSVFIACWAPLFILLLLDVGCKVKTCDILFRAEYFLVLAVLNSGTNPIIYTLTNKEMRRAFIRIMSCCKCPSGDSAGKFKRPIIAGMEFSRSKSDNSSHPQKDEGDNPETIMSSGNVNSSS
Chain of Nuclear receptor ROR-alpha (P35398 whole entry): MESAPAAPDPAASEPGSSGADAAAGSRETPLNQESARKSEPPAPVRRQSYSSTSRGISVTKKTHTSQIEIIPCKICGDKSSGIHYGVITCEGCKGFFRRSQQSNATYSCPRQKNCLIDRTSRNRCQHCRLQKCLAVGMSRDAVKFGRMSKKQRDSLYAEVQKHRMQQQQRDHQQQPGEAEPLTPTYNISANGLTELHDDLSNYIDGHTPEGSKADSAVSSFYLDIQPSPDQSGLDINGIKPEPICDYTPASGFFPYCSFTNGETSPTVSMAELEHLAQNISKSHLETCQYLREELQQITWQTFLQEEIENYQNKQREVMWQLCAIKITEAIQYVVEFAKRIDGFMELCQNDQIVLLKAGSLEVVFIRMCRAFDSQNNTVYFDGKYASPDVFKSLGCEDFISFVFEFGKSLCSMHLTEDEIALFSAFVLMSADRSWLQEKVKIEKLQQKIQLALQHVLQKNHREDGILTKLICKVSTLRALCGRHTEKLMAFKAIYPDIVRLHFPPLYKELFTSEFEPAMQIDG
Chain of Sphingosine 1-phosphate receptor 2 (O95136 whole entry): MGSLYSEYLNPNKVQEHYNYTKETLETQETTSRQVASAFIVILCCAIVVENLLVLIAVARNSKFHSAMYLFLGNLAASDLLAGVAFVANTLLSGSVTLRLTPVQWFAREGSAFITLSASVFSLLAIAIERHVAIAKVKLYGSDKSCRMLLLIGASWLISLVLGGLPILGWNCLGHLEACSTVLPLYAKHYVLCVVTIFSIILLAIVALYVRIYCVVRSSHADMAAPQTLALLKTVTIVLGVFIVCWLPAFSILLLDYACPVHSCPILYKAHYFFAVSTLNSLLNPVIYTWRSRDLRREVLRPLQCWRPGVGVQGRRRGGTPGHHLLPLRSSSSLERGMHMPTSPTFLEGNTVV
Chain of Nuclear receptor ROR-gamma (P51449 whole entry): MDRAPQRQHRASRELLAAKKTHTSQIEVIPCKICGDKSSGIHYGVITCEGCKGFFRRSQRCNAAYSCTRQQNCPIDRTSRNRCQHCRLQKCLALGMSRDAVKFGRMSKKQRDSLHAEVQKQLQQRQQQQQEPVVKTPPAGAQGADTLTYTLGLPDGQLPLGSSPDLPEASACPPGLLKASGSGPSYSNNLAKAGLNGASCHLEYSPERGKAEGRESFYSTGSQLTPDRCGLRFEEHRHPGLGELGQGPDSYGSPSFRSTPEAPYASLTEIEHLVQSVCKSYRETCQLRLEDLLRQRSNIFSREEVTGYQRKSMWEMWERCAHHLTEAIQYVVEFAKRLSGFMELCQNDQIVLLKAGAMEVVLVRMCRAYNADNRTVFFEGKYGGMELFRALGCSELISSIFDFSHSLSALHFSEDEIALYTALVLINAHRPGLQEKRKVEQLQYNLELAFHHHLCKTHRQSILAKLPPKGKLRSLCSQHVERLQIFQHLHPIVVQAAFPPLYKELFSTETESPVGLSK
Chain of Sphingosine 1-phosphate receptor 5 (Q9H228 whole entry): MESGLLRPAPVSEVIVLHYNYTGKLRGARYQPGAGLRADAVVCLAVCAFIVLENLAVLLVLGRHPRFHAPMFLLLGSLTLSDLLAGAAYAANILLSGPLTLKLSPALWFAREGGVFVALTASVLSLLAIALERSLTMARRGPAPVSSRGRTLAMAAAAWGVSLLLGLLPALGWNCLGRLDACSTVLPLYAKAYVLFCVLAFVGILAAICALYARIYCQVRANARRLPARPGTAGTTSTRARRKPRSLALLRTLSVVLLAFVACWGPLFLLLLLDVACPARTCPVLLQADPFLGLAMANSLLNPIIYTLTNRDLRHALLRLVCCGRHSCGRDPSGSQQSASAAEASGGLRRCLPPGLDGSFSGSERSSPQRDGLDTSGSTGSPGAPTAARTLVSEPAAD
Chain of Beta-galactosidase (Q8VNN2 whole entry): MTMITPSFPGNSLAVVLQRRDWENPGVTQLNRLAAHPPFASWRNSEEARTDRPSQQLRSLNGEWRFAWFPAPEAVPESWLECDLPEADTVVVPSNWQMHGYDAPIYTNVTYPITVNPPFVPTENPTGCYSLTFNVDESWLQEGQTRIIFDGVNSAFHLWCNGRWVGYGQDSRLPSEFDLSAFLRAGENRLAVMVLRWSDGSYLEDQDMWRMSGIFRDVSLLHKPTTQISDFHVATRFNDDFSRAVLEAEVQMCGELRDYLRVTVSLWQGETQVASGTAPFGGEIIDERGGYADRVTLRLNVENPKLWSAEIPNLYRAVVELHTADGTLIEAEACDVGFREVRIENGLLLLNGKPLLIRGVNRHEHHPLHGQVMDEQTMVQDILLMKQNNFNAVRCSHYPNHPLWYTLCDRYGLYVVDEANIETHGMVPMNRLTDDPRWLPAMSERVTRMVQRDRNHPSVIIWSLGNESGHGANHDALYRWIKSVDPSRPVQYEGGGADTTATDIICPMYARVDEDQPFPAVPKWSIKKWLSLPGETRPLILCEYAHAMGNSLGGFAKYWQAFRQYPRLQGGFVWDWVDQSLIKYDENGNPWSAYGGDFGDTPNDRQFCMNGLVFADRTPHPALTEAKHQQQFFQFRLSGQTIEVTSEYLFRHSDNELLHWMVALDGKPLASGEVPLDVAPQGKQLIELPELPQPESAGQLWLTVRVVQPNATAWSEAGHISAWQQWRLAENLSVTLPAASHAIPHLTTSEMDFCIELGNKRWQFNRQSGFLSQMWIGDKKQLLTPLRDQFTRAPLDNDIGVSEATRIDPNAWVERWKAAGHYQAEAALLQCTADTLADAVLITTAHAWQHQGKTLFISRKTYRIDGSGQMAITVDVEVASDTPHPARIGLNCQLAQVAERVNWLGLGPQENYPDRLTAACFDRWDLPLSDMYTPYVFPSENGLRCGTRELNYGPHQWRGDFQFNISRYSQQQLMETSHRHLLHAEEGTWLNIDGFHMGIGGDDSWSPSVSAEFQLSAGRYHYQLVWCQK
Chain of Sphingosine 1-phosphate receptor 3 (Q99500 whole entry): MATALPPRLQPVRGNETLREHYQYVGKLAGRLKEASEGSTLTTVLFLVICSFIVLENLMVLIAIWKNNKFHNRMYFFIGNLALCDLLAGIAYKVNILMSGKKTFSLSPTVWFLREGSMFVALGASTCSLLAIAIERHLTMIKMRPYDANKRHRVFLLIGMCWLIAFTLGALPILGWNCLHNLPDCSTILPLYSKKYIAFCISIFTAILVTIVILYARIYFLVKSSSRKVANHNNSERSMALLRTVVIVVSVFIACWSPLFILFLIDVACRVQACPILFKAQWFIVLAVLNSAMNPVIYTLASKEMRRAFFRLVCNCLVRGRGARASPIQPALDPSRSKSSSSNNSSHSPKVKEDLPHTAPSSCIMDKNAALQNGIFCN

O=[N+]([O-])c1c(O)oc2ccccc2/c1=N\C(c1ccccc1)c1ccccc1
inactive: IC50 [1] > 119 µM | IC50 (Exodeoxyribonuclease V) > 119 µM
active: IC50 [2] 2.79 µM

Cc1ccc(NC(=O)c2ccc(-c3cc(Cl)ccc3Cl)o2)c(C)c1
active: IC50 [3] 182 nM
inactive: IC50 [4] > 25 µM | IC50 [5] > 25 µM | IC50 [6] > 25 µM | IC50 [7] > 25 µM

Clc1ccc(CSc2nnc(-c3ccccn3)n2Cc2cccs2)cc1Cl
inactive: EC50 [8] > 32 µM | IC50 [10] > 32 µM | EC50 (Mu-type opioid receptor [12]) > 32 µM | IC50 [13] > 32 µM | EC50 [14] > 64 µM | IC50 (Mu-type opioid receptor [15]) > 32 µM | EC50 (Mu-type opioid receptor [16]) > 32 µM
active: EC50 [9] 454 nM | EC50 [11] 349 nM

CC(C)(C)c1ccc(S(=O)(=O)Nc2ccc(C(O)(C(F)(F)F)C(F)(F)F)cc2)cc1
inactive: IC50 [17] > 20 µM
active: IC50 [18] 2.47 µM

O=C(Cn1ncc(Cl)c(Cl)c1=O)N1CCc2ccccc21
2850 nM: IC50 [26]
> 120 µM (not active): EC50 [19]
inactive: IC50 [20] 14.7 µM | EC50 (Mu-type opioid receptor [27]) > 32 µM | EC50 [32] > 32 µM | EC50 (Beta-galactosidase) > 31.5 µM
active: IC50 [21] 5.51 µM | IC50 [22] 5.51 µM | AC50 (A-375 [23]) > 35 µM | AC50 [24] 8.77 µM | AC50 [25] 7.68 µM | AC50 [28] 16.3 µM | EC50 [29] 4.51 µM | AC50 [30] 7.11 µM | EC50 [31] 7.57 µM | EC50 [33] 8.12 µM | AC50 [34] 6.1 µM | AC50 (A-375 [35]) > 35 µM | IC50 [36] 1.64 µM | EC50 [37] 2.46 µM | AC50 [38] 4.3 µM
